# Publication PMC6290777, “Inhalation of the prodrug PI3K inhibitor CL27c improves lung function in asthma and fibrosis” (Nature Communications, 2018)
# Legend:
# [1] = test system: in vitro differentiated Treg; assay: Treg viability assessment; format: cell-based, C57BL/6 mice; conditions: 72 h; tested 1, 3, 10 or 30 uM
# Protocol: Cells were obtained from Lymph nodes and spleen from naive C57BL/6. Cells were then purified with CD4 T cell isolation Kit and with CD25 biotin and microbeads anti-biotin. Purified cells were cultured for 72 h in a 96-wells plate with anti-CD3/CD28 coated (1 ug/ml), TGF-B (1 ng/ml), or Cl27C (1, 3, 10 or 30 uM). After 72 h, the cells were harvested and stained with PBS (2% Bovine serum fetal) and anti-CD4 and fixable viability dye for 10 min. Cells were then fixed and permeabilized with intracellular fixation and permeabilization buffer set (eBioscience). Anti-FoxP3 was used for […]. After the staining, the cells were acquired with FACS VERSE machine and analyzed by FlowJo X software. […]
# obtained at 200 × magnification were analyzed using the software Image -J (NIH, USA). Results were expressed as extracellular matrix deposition area (pixels). […]
# Akt phosphorylation was measured by western blot as described in the “Western blot analysis” in […]
# Cells were obtained from Lymph nodes and spleen from naive C57Bl/6J and purified with CD4 T cell isolation Kit (Miltenyi Biotec #130-104-454) and with CD25 biotin (eBioscience #13-0252-81) and microbeads anti-biotin (Miltenyi Biotec #130-090-485). […] Positive stained cells were analyzed with FlowJo X software after removal of doublets events and debris through FSC-A/FSC-H gating.
# [2] = test system: AKT phosphorylation in IPF human lung fibroblasts; assay: AKT phosphorylation of human lung fibroblasts; format: cell-based; conditions: IPF cells; CL27c 10 µM
# Protocol: Human lung fibroblast cell culture
# Two separate human lung fibroblast cell lines isolated from IPF patients were used: LL97a derived from a person (ATCC, Manassas, USA) and DHLF-IPF (#CC-7231, Lonza, Switzerland). Control cell lines were CCD-16Lu, obtained from a person that died of astrocytoma –a disease unrelated to IPF - (ATCC) and NHLF (#CC-2512; Lonza). LL97a and CCD-16Lu cells were cultured in Dulbecco's modified Eagles medium (DMEM, Sigma Aldrich, Dorset, UK). Media was supplemented with penicillin/streptomycin (100 U/ml, Thermo-Fischer, Germany) and 10% fetal bovine serum (FBS, Thermo-Fischer, Germany). Cells from Lonza were cultured in the FGMTM (#CC-3132, Lonza). […]
# Caliper based assay, the reaction was terminated by addition of EDTA buffer. Substrate and product were separated and quantified electrophoretically using the microfluidic-based and the assay plate was read on Caliper LabChip 3000 Drug Discovery System from Caliper Life Sciences (Walthan, MA, USA). ADP Glo was another method of detection used for some kinase assays where data was obtained by quantifying the intensity of luminescence. For ADP Glo based assay, the reaction was terminated by applying the Promega ADP Glo Kinase Assay kit and the assay plate was read on a LJL Biosystems Analyst HT. […]
structure (smiles),measurement,setting,value
COC(=O)c1cccc(Cn2cc(-c3cccc4c(=O)cc(N5CCOCC5)[nH]c34)nn2)c1 [CL27c],concentration with toxic effects on Treg viability,[1],30 µM
same,serum-induced AKT phosphorylation,[2],effectively blunted serum-induced AKT phosphorylation
